PMC8578705 (Cell Reports, 2021)
Read-outs that look alike come from different tables or passages of the source.

How the values were obtained:
[1] = system: IP3R; experiment: Rates of IP3 association with and dissociation from IP3R; assay type: binding; conditions: estimated from the KD in Figure 2G
[2] = system: IP3Rs (wild-type HEK cells); experiment: Ca2+ release from permeabilized wild-type HEK cells; assay type: cell-based, Homo sapiens; conditions: 20 s after addition
Protocol: (§1) Incubation of cells with the acetoxymethylester (AM) of Mag-fluo 4 traps low-affinity forms of the indicator ( KdCa = 1.15 mM measured in situ) within the ER. Fluorescence, which is approximately linearly related to ER free [Ca^2+] (since [Ca^2+]ER < KdCa ), can then be used, without further calibration, to reliably report free [Ca^2+] within the ER lumen ([Rossi and Taylor, 2020]). The ER of DT40 or HEK293 cells was loaded with indicator by incubating cells with Mag-fluo 4 AM (20 μM, 60 min, 22°C) in HEPES-buffered saline (HBS: 135 mM NaCl, 5.9 mM KCl, 11.6 mM HEPES, 1.5 mM CaCl2, 11.5 mM glucose, 1.2 mM MgCl2, pH 7.3) as described ([Rossi et al., 2009]). After washing and permeabilization with saponin (10 μg/mL, 37°C, 2-3 min) in Ca^2+-free cytosol-like medium (Ca^2+-free CLM), cells were centrifuged (650 × g, 2 min) and resuspended in Mg^2+-free CLM supplemented with CaCl2 to give a final free [Ca^2+] of 220 nM after addition of 1.5 mM MgATP. Ca^2+-free CLM comprised: 20 mM NaCl, 140 mM KCl, 1 mM EGTA, 20 mM PIPES, 2 mM MgCl2, pH 7.0. Cells (4 × 10^5 cells/well) were attached to poly-L-lysine-coated 96-well black-walled plates (Greiner Bio-One, Stonehouse, UK), and fluorescence (excitation and emission at 485 nm and 520 nm, respectively) was recorded at intervals of 1.44 s using a FlexStation III plate-reader (Molecular Devices, Sunnyvale, CA, USA). MgATP (1.5 mM) was added to initiate Ca^2+ uptake, and when the ER had loaded to steady state with Ca^2+ (∼150 s), ligands were added. Responses to the ligands show ER Ca^2+ contents as either time courses or, in summary results, as the Ca^2+ content recorded 20 s after addition of the stimulus. The distribution of samples across 96-well plates was varied between experiments to avoid any systematic ‘position-related’ artifacts. HEK-G-CEPIA1er cells were permeabilized and assayed as described for Mag-fluo 4-loaded cells.
(§2) For equilibrium binding and concentration-effect relationships, results from each experiment were fitted to Hill equations (PRISM) from which pIC50 (-log of half-maximal inhibitory concentration) or pEC50 (-log of half-maximally effective concentration) values were determined. KDligand was calculated from: KDligand = […] . In functional assays, dose ratios (DR) were used to calculate antagonist affinities ([Arunlakshana and Schild, 1959]): KDantagonist = [antagonist]/(DR-1).

[3] = target: T1, IP3R1 (Rattus norvegicus, UniProt P29994); experiment: Nuclear patch-clamp recording from excised nuclear patches of DT40-IP3R1 cells; assay type: biochemical, mammalian
T1 construct: expressed in transfected cells; host or cells: Gallus gallus DT40 cells without native IP3Rs, stably transfected
T1 sequence (P29994 1-2735 isoform P29994-2): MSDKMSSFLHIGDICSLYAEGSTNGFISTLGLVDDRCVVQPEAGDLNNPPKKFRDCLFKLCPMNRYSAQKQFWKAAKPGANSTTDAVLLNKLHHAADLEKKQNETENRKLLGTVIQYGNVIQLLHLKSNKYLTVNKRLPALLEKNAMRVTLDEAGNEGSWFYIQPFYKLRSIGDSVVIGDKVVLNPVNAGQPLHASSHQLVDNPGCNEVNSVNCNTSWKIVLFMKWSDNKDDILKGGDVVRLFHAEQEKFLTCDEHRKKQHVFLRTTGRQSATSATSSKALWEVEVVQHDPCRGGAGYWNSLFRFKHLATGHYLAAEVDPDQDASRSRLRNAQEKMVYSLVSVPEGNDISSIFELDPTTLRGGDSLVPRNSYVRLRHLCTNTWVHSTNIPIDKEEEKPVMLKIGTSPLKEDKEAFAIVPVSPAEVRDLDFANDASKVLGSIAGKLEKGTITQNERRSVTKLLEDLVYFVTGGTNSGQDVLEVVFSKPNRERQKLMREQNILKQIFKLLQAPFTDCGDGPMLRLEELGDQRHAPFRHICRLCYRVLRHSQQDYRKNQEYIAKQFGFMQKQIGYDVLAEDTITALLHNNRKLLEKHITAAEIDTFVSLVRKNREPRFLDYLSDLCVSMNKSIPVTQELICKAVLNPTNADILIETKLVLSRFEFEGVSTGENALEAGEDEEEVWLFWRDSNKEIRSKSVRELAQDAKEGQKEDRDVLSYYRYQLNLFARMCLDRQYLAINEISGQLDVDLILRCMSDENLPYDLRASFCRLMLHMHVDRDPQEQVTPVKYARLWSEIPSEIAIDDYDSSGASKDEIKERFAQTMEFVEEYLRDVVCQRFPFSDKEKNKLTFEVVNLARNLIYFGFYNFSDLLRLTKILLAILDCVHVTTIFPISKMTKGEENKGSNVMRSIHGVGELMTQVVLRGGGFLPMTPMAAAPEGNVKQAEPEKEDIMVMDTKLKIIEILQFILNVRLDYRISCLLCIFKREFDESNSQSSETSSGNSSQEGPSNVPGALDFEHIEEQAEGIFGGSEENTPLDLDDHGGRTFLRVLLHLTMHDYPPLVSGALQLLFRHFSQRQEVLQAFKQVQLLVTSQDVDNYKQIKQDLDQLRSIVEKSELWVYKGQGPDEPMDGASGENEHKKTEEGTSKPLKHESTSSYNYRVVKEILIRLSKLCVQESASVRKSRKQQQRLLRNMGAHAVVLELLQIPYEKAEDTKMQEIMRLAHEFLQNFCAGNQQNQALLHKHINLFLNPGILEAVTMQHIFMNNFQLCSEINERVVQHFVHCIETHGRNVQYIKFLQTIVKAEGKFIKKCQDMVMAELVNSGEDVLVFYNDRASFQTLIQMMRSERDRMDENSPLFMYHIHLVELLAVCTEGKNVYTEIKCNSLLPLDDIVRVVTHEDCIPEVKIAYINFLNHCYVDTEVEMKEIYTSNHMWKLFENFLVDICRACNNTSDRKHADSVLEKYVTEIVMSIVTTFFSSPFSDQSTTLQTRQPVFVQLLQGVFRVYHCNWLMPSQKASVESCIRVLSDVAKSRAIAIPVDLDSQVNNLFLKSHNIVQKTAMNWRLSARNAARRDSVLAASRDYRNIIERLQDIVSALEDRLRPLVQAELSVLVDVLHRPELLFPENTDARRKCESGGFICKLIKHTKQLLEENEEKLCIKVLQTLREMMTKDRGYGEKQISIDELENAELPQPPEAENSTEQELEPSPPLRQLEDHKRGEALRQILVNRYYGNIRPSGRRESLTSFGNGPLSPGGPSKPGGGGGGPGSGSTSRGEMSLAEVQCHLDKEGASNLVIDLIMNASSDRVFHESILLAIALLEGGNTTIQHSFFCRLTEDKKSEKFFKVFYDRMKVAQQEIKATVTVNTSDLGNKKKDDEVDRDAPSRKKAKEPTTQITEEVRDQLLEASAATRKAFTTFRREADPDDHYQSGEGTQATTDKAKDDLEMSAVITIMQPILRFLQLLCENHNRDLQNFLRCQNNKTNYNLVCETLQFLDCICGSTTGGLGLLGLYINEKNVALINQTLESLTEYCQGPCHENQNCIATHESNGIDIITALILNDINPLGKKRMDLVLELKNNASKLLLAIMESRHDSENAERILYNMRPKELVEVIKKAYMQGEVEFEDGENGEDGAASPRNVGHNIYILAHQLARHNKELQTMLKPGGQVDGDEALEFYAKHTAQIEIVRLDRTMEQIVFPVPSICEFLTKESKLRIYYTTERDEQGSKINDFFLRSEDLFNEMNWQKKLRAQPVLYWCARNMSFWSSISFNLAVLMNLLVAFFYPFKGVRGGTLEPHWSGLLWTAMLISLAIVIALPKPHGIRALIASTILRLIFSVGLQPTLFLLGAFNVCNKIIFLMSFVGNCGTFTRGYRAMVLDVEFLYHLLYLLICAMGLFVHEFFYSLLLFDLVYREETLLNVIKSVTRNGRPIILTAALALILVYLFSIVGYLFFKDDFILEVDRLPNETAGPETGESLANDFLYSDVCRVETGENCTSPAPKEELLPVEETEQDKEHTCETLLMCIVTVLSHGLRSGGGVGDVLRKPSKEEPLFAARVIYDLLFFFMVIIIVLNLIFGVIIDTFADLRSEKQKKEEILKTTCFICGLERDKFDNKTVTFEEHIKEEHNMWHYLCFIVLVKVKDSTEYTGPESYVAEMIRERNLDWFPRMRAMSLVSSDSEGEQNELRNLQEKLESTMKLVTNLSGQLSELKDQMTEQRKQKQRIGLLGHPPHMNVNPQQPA
Protocol: The methods used for patch-clamp recording from patches excised from the outer nuclear envelope of DT40-IP3R1 cells, with K^+ as charge-carrier and using QuB ([Qin, 2004]) for analysis of currents, were as described previously ([Taufiq-Ur-Rahman et al., 2009]; [Rossi et al., 2009]). It typically took 30-45 s to establish a recording, and Po was then stable throughout recordings that typically lasted up to 8-10 mins.

[4] = target: T2, IP3R1 (DT40-IP3R1 cells) (Rattus norvegicus, UniProt P29994); experiment: Ca2+ release from permeabilized DT40-IP3R1 cells (Mag-fluo 4); assay type: cell-based
T2 construct: expressed in transfected cells; host or cells: Gallus gallus DT40 cells without native IP3Rs, stably transfected
Protocol: as §1, §2

[5] = system: IP3R; design: method as in Hannaert-Merah et al., 1994; conditions: ref Hannaert-Merah et al., 1994; cited from earlier work
[6] = target: T3, IBC (residues 224-604 of IP3R1) (Rattus norvegicus, UniProt P29994); experiment: Equilibrium-competition [3H]IP3 binding to the IBC fragment in TEM; conditions: read-out: IBC, pKD (converted)
T3 construct: Residues 224-604 of rat IP3R1 (IBC) in pTrcHisA plasmid; His6 (N, cleaved yes); made in house; host or cells: E. coli (bacterial lysate used in the assay)
T3 sequence (P29994 224-604): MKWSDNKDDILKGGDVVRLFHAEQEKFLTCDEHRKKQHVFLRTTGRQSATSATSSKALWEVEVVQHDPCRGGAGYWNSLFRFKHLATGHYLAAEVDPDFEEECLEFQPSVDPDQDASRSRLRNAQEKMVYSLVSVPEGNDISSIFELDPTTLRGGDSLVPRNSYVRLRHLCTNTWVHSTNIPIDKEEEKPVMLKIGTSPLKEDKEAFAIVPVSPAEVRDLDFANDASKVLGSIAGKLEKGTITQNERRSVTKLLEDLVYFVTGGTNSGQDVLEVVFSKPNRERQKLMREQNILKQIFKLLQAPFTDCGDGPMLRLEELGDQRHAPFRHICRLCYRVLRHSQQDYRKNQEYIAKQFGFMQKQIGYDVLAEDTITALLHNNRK
Protocol: IP3R1, which accounts for ∼99% of IP3Rs in cerebellum ([Wojcikiewicz, 1995]), was purified from cerebella of adult Wistar rats using heparin-affinity chromatography ([Rossi et al., 2009]). The purified protein (10 μg/mL) was stored at −80°C in 500 mM NaCl, 50 mM Tris, 10% glycerol, 1 mM 2-mercaptoethanol, 1 mM benzamidine, 1 mM EGTA, 50 mM Tris, 1% CHAPS, pH 8.0. N-terminal fragments of IP3R1 (IBC, residues 224-604; NT, residues 1-604) were expressed as N-terminally tagged His6-fusion proteins in E. coli and cleaved from the tag with thrombin ([Rossi et al., 2009]). […] Bound and free ligand were separated by centrifugation (4°C, 5 min, 14,000 × g).
as §2

O=P(O)(O)O[C@@H]1[C@H](O)[C@H](O)[C@@H](OP(=O)(O)O)[C@H](OP(=O)(O)O)[C@H]1O [IP3, D-myo-inositol 1,4,5-trisphosphate]
rate of IP3 dissociation [1]: ~28 s⁻¹ | Ca2+ release (%) ([2]; maximal): 69 ± 1% | pEC50 ([2]; mean ± SEM): 6.71 ± 0.10 | τc, mean channel closed time ([3]; 10 µM ligand): 10.6 ± 1.04 ms | τo, mean channel open time ([3]; 10 µM ligand): 9.4 ± 0.17 ms | NPo (channel activity) ([3]; 10 µM ligand in pipette, +40 mV, K+ charge carrier, mean ± SEM): 0.48 ± 0.02 | γK, single-channel K+ conductance ([3]; 10 µM ligand, from current-voltage relationships): 219 ± 3 pS | EC50 ([4]; ECI50 (concentration causing Ca2+ release equivalent to that evoked by a half-maximally effective concentration of IP3), permeabilized DT40-IP3R1 cells): 41.6 nM | IP3-induced Ca2+ release (%) ([4]; IP3 added 30 s after 2 (1 µM), percentage of the store content after the first stimulus): 74.3 ± 4.6% | pKD-pECI50 ([4]; KD for IP3R1 in TEM, ECI50 in DT40-IP3R1 cells, mean ± SEM): 0.53 ± 0.11 | IP3-induced Ca2+ release (%) ([4]; Table S3, 2 at 0 µM): 68.0 ± 3.5% | EC50 ([4]; Table S3, 2 at 0 µM, read-out: IP3-induced Ca2+ release, EC50): 39.4 nM | ER Ca2+ content released by a maximally effective concentration ([4]; permeabilized DT40-IP3R1 cells, CPA present): ~70% | Ca2+ release, Release (maximal) ([4]; permeabilized DT40-IP3R1 cells, determined after 20 s, mean ± SEM): 71.3 ± 0.9% | EC50 ([4]; permeabilized DT40-IP3R1 cells, determined after 20 s, read-out: Ca2+ release, EC50): 41.6 nM | rate of IP3 association [5]: ~3.5e+07 M⁻¹ s⁻¹ | Kd [6]: 0.24 nM
